ChEMBL document CHEMBL5528012, “Discovery of novel deoxyvasicinone derivatives with benzenesulfonamide substituents as multifunctional agents against Alzheimer's disease” (Eur J Med Chem, 2024)
Activity calls are given as the source filed them. No cut-off for these calls is given here.

How the values were obtained:
[1] = target: T1, Acetylcholinesterase (Electrophorus electricus, UniProt O42275); experiment: Inhibition of electric eel AChE using acetylthiocholine iodide as substrate pre-incubated for 30 mins followed by substrate addition and measured after 5 mins by DTNB reagent based Ellman's method
[2] = target: Cholinesterase (Equus caballus, UniProt P81908); experiment: Inhibition of equine serum BuChE using S-butyrylthiocholine iodide as substrate pre-incubated for 30 mins followed by substrate addition and measured after 5 mins by DTNB reagent based Ellman's method
[3] = Hepatotoxicity in mouse AML12 cells assessed as reduction in cell viability at 20 to 100 uM incubated for 24 hrs by MTT assay; type: toxicity, cell-based; conditions: aml12, 24 h, dose 20-100 µM
[4] = system: BV-2; experiment: Anti-neuroinflammatory activity against LPS-induced mouse BV-2 cells assessed as inhibition of NO production pre-incubated for 1 hr followed by LPS addition and measured after 24 hrs by Griess reagent based assay; type: functional, cell-based
[5] = Toxicity in C57BL mouse assessed as change in body weight at 10 to 30 mg/kg, po measured after 7 days; type: organism-based; conditions: in vivo, 168 h, dose 10-30 mg/kg, time 7 day
[6] = system: BV-2; experiment: Anti-neuroinflammatory activity against LPS-induced mouse BV-2 cells assessed as decrease in iNOS protein expression pre-incubated for 1 hr followed by LPS addition and measured after 24 hrs by Western blotting analysis; type: functional, cell-based; conditions: dose 1-10 µM, time 25.0 hrs
[7] = system: BV-2; experiment: Anti-neuroinflammatory activity against LPS-induced mouse BV-2 cells assessed as inhibition of TNF-alpha production pre-incubated for 1 hr followed by LPS addition and measured after 24 hrs by ELISA; type: functional, cell-based
[8] = system: Mus musculus; experiment: Antialzheimer activity in scopolamine-induced C57BL mouse model assessed as increase in crossing frequency in platform area at 30 mg/kg, po administered for 7 days followed by scopolamine administration and measured after 5 days by Morris water maze test; type: functional, organism-based; conditions: time 12.0 day
[9] = target: T1, Acetylcholinesterase; experiment: Inhibition of electric eel AChE assessed as dissociation constant using acetylthiocholine iodide as substrate pre-incubated for 30 mins followed by substrate addition and measured after 5 mins by DTNB reagent based Ellman's method
[10] = Metal chelating activity assessed as Cu2+-compound complex formation by measuring drop in intensity of absorption curve at 50 uM incubated for 1 hr in presence of CuCl2 by UV-Visible spectrophotometry
[11] = system: PC-12; experiment: Cytotoxicity against rat PC12 cells assessed as reduction in cell viability at 20 to 50 uM incubated for 24 hrs by MTT assay; type: toxicity, cell-based; conditions: pc-12, 24 h, dose 20-50 µM
[12] = system: Mus musculus; experiment: Antialzheimer activity in scopolamine-induced C57BL mouse model assessed as decrease in escape latency at 10 to 30 mg/kg, po administered for 7 days followed by scopolamine administration and measured after 4 days by Morris water maze test; type: functional, organism-based; conditions: dose 10-30 mg/kg, time 11.0 day
[13] = system: BV-2; experiment: Anti-neuroinflammatory activity against LPS-induced mouse BV-2 cells assessed as inhibition of IL-1beta production pre-incubated for 1 hr followed by LPS addition and measured after 24 hrs by ELISA; type: functional, cell-based
[14] = system: PC-12; experiment: Neuroprotective activity against H2O2-induced cell death in rat PC12 cells assessed as increase in survival rate pre-incubated for 3 hrs followed by H2O2 addition and measured after 24 hrs by MTT assay; type: functional, cell-based; conditions: dose 1-20 µM, time 27.0 hrs
[15] = system: Mus musculus; experiment: Antialzheimer activity in scopolamine-induced C57BL mouse model assessed as effect on swimming speed at 10 to 30 mg/kg, po administered for 7 days followed by scopolamine administration and measured after 4 days by Morris water maze test; type: functional, organism-based; conditions: dose 10-30 mg/kg, time 11.0 day
[16] = Metal chelating activity assessed as Cu2+-compound complex formation by measuring red shift in maximum absorption wavelength at 50 uM incubated for 1 hr in presence of CuCl2 by UV-Visible spectrophotometry
[17] = Acute toxicity in C57BL mouse assessed as lung damage upto 2000 mg/kg, po administered as single dose and measured after 2 weeks by hematoxylin and eosin staining based analysis; type: organism-based; conditions: in vivo, 336 h
[18] = Acute toxicity in C57BL mouse assessed as spleen damage upto 2000 mg/kg, po administered as single dose and measured after 2 weeks by hematoxylin and eosin staining based analysis; type: organism-based; conditions: in vivo, 336 h
[19] = target: Acetylcholinesterase (Electrophorus electricus) (UniProt O42275); experiment: Mixed type inhibition of electric eel AChE using acetylthiocholine iodide as substrate pre-incubated for 30 mins followed by substrate addition and measured after 5 mins by DTNB reagent based Ellman's method; conditions: dose 0-0.4 µM, time 35.0 min
[20] = Hepatotoxicity in human HepG2 cells assessed as reduction in cell viability at 20 to 100 uM incubated for 24 hrs by MTT assay; type: toxicity, cell-based; conditions: hepg2, 24 h, dose 20-100 µM
[21] = system: PC-12; experiment: Antioxidant activity in H2O2-induced rat PC12 cells assessed as reduction in intracellular ROS level incubated for 1 hr followed by H2O2 addition and measured after 5 hrs by DCFH-DA staining based laser confocal microscopy; type: functional, cell-based; conditions: dose 10-20 µM, time 6.0 hrs
[22] = Acute toxicity in C57BL mouse assessed as liver damage upto 2000 mg/kg, po administered as single dose and measured after 2 weeks by hematoxylin and eosin staining based analysis; type: organism-based; conditions: in vivo, 336 h
[23] = Acute toxicity in C57BL mouse assessed as heart damage upto 2000 mg/kg, po administered as single dose and measured after 2 weeks by hematoxylin and eosin staining based analysis; type: organism-based; conditions: in vivo, 336 h
[24] = system: BV-2; experiment: Anti-neuroinflammatory activity against LPS-induced mouse BV-2 cells assessed as decrease in COX-2 protein expression pre-incubated for 1 hr followed by LPS addition and measured after 24 hrs by Western blotting analysis; type: functional, cell-based; conditions: dose 1-10 µM
[25] = system: Mus musculus; experiment: Antialzheimer activity in scopolamine-induced C57BL mouse model assessed as prevention of blurred borders in cortical cells of hippocampal region at 10 to 30 mg/kg, po administered for 7 days followed by scopolamine administration by hematoxylin and eosin staining based analysis; type: functional, organism-based; conditions: dose 10-30 mg/kg
[26] = Acute toxicity in C57BL mouse assessed as kidney damage upto 2000 mg/kg, po administered as single dose and measured after 2 weeks by hematoxylin and eosin staining based analysis; type: organism-based; conditions: in vivo, 336 h
[27] = system: Mus musculus; experiment: Antialzheimer activity in scopolamine-induced C57BL mouse model assessed as prevention of irregular cellular arrangements in cortical cells of hippocampal region at 10 to 30 mg/kg, po administered for 7 days followed by scopolamine administration by hematoxylin and eosin staining based analysis; type: functional, organism-based; conditions: dose 10-30 mg/kg
[28] = system: BV-2; experiment: Cytotoxicity against mouse BV-2 cells assessed as reduction in cell viability at 20 to 50 uM incubated for 24 hrs by MTT assay; type: toxicity, cell-based; conditions: bv-2, 24 h, dose 20-50 µM
[29] = system: Mus musculus; experiment: Antialzheimer activity in scopolamine-induced C57BL mouse model assessed as increase in residence time in platform area at 30 mg/kg, po administered for 7 days followed by scopolamine administration and measured after 5 days by Morris water maze test; type: functional, organism-based; conditions: time 12.0 day
[30] = Metal chelating activity assessed as Zn2+-compound complex formation by measuring blue shift in maximum absorption wavelength at 50 uM incubated for 1 hr in presence of ZnCl2 by UV-Visible spectrophotometry
[31] = in vitro; conditions: PAMPA, pH 7.4
Description: Permeability of the compound at 30 to 50 uM at pH 7.4 by PAMPA-BBB assay

[32] = target: T1, Acetylcholinesterase; experiment: Inhibition of electric eel AChE

T1 sequence (O42275 whole entry): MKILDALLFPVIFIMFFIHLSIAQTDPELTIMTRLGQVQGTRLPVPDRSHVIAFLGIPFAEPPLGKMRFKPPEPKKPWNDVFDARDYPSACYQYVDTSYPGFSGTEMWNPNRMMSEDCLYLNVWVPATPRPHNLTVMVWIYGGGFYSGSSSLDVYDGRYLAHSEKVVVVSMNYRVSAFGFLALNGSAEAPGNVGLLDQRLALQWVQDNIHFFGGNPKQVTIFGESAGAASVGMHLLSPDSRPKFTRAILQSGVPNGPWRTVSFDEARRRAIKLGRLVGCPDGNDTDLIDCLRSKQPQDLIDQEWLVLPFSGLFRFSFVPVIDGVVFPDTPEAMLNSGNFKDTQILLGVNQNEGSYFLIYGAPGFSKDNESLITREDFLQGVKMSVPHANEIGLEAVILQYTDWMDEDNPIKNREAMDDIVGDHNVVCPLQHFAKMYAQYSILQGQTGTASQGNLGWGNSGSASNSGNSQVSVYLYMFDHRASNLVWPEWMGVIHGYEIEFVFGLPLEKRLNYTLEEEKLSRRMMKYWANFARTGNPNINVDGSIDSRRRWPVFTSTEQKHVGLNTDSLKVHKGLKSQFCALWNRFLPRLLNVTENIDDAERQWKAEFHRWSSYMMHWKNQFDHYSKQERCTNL
Cholinesterase, sequence (P81908 whole entry): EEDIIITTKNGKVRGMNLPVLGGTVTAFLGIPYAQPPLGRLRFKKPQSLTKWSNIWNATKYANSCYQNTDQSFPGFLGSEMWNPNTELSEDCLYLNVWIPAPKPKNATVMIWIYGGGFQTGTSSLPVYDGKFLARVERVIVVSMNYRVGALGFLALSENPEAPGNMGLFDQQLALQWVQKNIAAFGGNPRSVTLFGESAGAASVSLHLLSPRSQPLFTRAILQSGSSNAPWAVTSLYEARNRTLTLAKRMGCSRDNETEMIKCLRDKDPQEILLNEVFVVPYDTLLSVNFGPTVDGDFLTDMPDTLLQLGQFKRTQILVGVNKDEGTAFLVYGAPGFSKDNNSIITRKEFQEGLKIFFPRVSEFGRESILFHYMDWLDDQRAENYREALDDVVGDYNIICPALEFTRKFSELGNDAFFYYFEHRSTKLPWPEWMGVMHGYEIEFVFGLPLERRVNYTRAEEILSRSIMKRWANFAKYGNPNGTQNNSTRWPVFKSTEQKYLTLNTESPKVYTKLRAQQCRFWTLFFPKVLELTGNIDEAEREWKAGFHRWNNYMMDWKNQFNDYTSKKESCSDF
Acetylcholinesterase (Electrophorus electricus), sequence (O42275 24-633 limits assumed): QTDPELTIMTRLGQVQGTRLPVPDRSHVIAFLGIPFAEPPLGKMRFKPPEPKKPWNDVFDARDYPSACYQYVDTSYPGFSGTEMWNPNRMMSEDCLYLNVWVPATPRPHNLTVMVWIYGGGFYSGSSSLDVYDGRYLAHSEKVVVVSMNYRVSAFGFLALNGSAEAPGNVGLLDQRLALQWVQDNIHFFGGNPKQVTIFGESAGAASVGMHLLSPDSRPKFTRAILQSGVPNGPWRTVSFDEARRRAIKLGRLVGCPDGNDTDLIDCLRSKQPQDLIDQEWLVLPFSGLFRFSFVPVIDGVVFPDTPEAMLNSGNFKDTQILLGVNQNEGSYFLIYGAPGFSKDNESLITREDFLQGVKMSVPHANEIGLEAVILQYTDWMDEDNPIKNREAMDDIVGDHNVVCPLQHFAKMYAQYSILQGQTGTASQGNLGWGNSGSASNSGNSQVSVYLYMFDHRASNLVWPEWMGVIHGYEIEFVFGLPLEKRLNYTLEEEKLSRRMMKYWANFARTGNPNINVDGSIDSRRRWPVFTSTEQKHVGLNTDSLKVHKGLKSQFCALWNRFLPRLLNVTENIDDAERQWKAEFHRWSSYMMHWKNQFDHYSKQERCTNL

## O=C(CNS(=O)(=O)c1ccccc1Cl)Nc1ccc2c(=O)n3c(nc2c1)CCC3
[1]
  IC50: 2.57 µM
[2]
  IC50: > 50 µM

## O=C(CNS(=O)(=O)c1ccccc1C(F)(F)F)Nc1ccc2c(=O)n3c(nc2c1)CCC3
[3]
  Activity: Non-Toxic
[4]
  IC50: 3.34 µM
[4]; time 25.0 hrs
  Activity: Dose-Dependent Effect
[5]
  Activity: Non-Toxic
[6]
  Activity: Dose-Dependent Effect
[1]
  IC50: 0.24 µM
[7]
  IC50: 8.62 µM
[7]; time 25.0 hrs
  Activity: Dose-Dependent Effect
[8]
  Activity: Active
[9]
  Ki: 0.24 µM
[10]
  Activity: Active
[11]
  Activity: Non-Toxic
[12]
  Activity: Active
[13]
  IC50: 1.69 µM
[13]; time 25.0 hrs
  Activity: Dose-Dependent Effect
[14]
  Activity: Dose-Dependent Effect
[15]
  Activity: inactive
[16]
  Activity: Active
[17]
  Activity: Non-Toxic
[18]
  Activity: Non-Toxic
[19]
  inhibition: Dose-Dependent Effect
[20]
  Activity: Non-Toxic
[21]
  Activity: Dose-Dependent Effect
[22]
  Activity: Non-Toxic
[23]
  Activity: Non-Toxic
[24]
  Activity: Dose-Dependent Effect
[25]
  Activity: Active
[26]
  Activity: Non-Toxic
[27]
  Activity: Active
[28]
  Activity: Non-Toxic
[29]
  Activity: Active
[2]
  IC50: > 50 µM
[30]
  Activity: Active
[31]
  Papp at 50 µM: 10.5 ×10⁻⁶ cm/s

## O=C(CNS(=O)(=O)c1cccc(OC(F)(F)F)c1)Nc1ccc2c(=O)n3c(nc2c1)CCC3
[1]
  IC50: > 50 µM
[2]
  IC50: > 50 µM

## O=C(CNS(=O)(=O)c1cc(Br)cc(C(F)(F)F)c1)Nc1ccc2c(=O)n3c(nc2c1)CCC3
[1]
  IC50: > 50 µM
[2]
  IC50: > 50 µM

## COc1ccc(S(=O)(=O)NCC(=O)Nc2ccc3c(=O)n4c(nc3c2)CCC4)cc1OC
[1]
  IC50: 10.4 µM
[2]
  IC50: > 50 µM

## O=C(CNS(=O)(=O)c1c(F)cccc1F)Nc1ccc2c(=O)n3c(nc2c1)CCC3
[1]
  IC50: 5.12 µM
[2]
  IC50: > 50 µM

## O=C(CNS(=O)(=O)c1ccc(Br)cc1)Nc1ccc2c(=O)n3c(nc2c1)CCC3
[1]
  IC50: > 50 µM
[2]
  IC50: > 50 µM

## O=C(CNS(=O)(=O)c1ccc(C(F)(F)F)cc1)Nc1ccc2c(=O)n3c(nc2c1)CCC3
[1]
  IC50: 24.8 µM
[2]
  IC50: > 50 µM

## O=c1c2ccccc2nc2n1CCC2 [DEOXYVASICINONE]
[3]
  Activity: Non-Toxic
[20]
  Activity: Non-Toxic
[32]
  IC50: 82.5 µM

## O=C(CNS(=O)(=O)c1ccc(F)cc1)Nc1ccc2c(=O)n3c(nc2c1)CCC3
[1]
  IC50: 5.68 µM
[2]
  IC50: > 50 µM

## Cc1ccc(S(=O)(=O)NCC(=O)Nc2ccc3c(=O)n4c(nc3c2)CCC4)cc1
[1]
  IC50: 17.6 µM
[2]
  IC50: > 50 µM

## O=C(CNS(=O)(=O)c1ccccc1F)Nc1ccc2c(=O)n3c(nc2c1)CCC3
[1]
  IC50: 5.25 µM
[2]
  IC50: > 50 µM

## CC(C)(C)c1ccc(S(=O)(=O)NCC(=O)Nc2ccc3c(=O)n4c(nc3c2)CCC4)cc1
[1]
  IC50: > 50 µM
[2]
  IC50: > 50 µM

## O=C(CNS(=O)(=O)c1ccccc1OC(F)(F)F)Nc1ccc2c(=O)n3c(nc2c1)CCC3
[1]
  IC50: 0.78 µM
[2]
  IC50: > 50 µM

## COc1ccc(Br)cc1S(=O)(=O)NCC(=O)Nc1ccc2c(=O)n3c(nc2c1)CCC3
[1]
  IC50: 5.22 µM
[2]
  IC50: > 50 µM

## O=C(CNS(=O)(=O)c1ccc(F)c(Cl)c1)Nc1ccc2c(=O)n3c(nc2c1)CCC3
[1]
  IC50: 8.08 µM
[2]
  IC50: > 50 µM

## O=C(CNS(=O)(=O)c1ccc(OC(F)(F)F)cc1)Nc1ccc2c(=O)n3c(nc2c1)CCC3
[1]
  IC50: > 50 µM
[2]
  IC50: > 50 µM

## CC(C)c1ccc(S(=O)(=O)NCC(=O)Nc2ccc3c(=O)n4c(nc3c2)CCC4)cc1
[1]
  IC50: 12.5 µM
[2]
  IC50: > 50 µM
